Source: patent US20130171079A1, “COMPOSITION TO STABILISE KOJIC ACID” (Pangaea Laboratories Ltd., priority 2011, published 2013)

What was measured:
[1] = background statement; accelerated by heat, UV or low pH; cited from earlier work
[2] = Colour-change stability test of 2% kojic acid in an aqueous cosmetic base with sodium metabisulphite and/or propyl gallate; assay type: physicochemical; details: over 42 days, room temperature, 2% kojic acid aqueous base
Experimental: A test was conducted to measure the effect of sodium metabisulphite and propyl gallate on the stability of kojic acid in aqueous cosmetic or pharmaceutical compositions. In this regard kojic acid is known to change colour from a slight yellow to very dark yellow as it degrades, and so colour change was used as the indicator of stability vs. degradation. All samples contained 2% kojic acid in an aqueous cosmetic base. [table] Each sample was photographed and optically assessed against a 20-stage yellow colour spectrum, where 1 was a very pale straw yellow, and 20 was a dark yellow. Photographs were taken on day 1, day 7 and day 42. In between photographs, the samples were stored together at normal room temperature.

[3] = Earlier experiments on stability (discolouration) of kojic acid solutions with stabilisers; assay type: physicochemical; details: two month period
Excerpt: One useful, if obvious, solution to the problem would be to add a preservative such as sodium metabisulphite. Sodium metabisulphite is in a class of preservatives that release sulphur dioxide. […] However this option is not enough for two reasons. Firstly, two months is not sufficient shelf life for a cosmetic or pharmaceutical composition. Secondly, a preferable format for a skin lightening composition would also include one or more other lightening ingredients, such as lactic acid, niacinamide and ascorbic acid. The net effect of these ingredients may lower the pH, and accelerate the degradation of kojic acid. This has been shown in experiments to overcome the stabilising effect of sodium metabisulphite during a two month period.
It was then hypothesised that reducing agents or antioxidants may help by preventing free radical formation. Various antioxidants were tested without noticeable effect.
Researchers expected the combination to deliver better results that propyl gallate, but worse results than sodium metabisulphite alone. Instead the kojic acid solution remained completely clear for more than two months. The result is certainly not additive and therefore must be due to some previously unknown synergy between sodium metabisulphite and propyl gallate.

Row | Structure (SMILES) | stability of kojic acid in solution (in words) [1] | effect of the additive on stability of kojic acid (in words) [2] | stabilisation / discolouration of kojic acid solution (in words) [3]
1 | O=c1cc(CO)occ1O [kojic acid] | degrades within weeks in solution | – | –
2 | CCCOC(=O)c1cc(O)c(O)c(O)c1 [propyl gallate] | – | worsened stability slightly | –
3 | O=S([O-])S(=O)(=O)[O-].[Na+].[Na+] [sodium metabisulphite] | – | improved stability slightly | keeping discolouration to a low level for up to two months
